Test results from patent US9487488B2, “Sulfonamide compound” (MITSUBISHI TANABE PHARMA CORPORATION, priority 2012, dated 2016).

Target: human TRPM8 (Homo sapiens (Human), UniProt Q7Z2W7)
Assay: TRPM8 inhibition assay (menthol-induced calcium influx, FDSS)
Format: cell-based
Details: HEK293 cells stably expressing human TRPM8; 100 μmol/L menthol; Fura-2AM calcium signal; read-out: TRPM8 Blocking Test (IC50/nmol/L)
Procedure: The functional activity of a test compound was determined by measuring change in intracellular calcium concentration using a calcium sensitive fluorescent dye. The change in fluorescent signal was measured by the cell imaging technology by Hamamatsu Photonics's Functional Drug Screening System (FDSS).
HEK293 cells stably expressing human TRPM8 were grown in a flask. On assay day, the culture medium was removed from the flask, and cells were washed with phosphate-buffered saline (PBS) and harvested with PBS containing 2 mmol/L of ethylenediaminetetraacetic acid disodium salt (EDTA-2Na). […] Subsequently, suspended 20,000 to 50,000 cells per well were incubated with a test compound (at varying concentrations) in each well at 37° C. for 20 minutes. Change in intracellular calcium concentration evoked by 100 μmol/L of menthol was measured for 2 minutes using FDSS. […] The concentration-response curve was generated using the average of quadruplicate wells for each data point.

Sequence of human TRPM8 (Q7Z2W7 whole entry): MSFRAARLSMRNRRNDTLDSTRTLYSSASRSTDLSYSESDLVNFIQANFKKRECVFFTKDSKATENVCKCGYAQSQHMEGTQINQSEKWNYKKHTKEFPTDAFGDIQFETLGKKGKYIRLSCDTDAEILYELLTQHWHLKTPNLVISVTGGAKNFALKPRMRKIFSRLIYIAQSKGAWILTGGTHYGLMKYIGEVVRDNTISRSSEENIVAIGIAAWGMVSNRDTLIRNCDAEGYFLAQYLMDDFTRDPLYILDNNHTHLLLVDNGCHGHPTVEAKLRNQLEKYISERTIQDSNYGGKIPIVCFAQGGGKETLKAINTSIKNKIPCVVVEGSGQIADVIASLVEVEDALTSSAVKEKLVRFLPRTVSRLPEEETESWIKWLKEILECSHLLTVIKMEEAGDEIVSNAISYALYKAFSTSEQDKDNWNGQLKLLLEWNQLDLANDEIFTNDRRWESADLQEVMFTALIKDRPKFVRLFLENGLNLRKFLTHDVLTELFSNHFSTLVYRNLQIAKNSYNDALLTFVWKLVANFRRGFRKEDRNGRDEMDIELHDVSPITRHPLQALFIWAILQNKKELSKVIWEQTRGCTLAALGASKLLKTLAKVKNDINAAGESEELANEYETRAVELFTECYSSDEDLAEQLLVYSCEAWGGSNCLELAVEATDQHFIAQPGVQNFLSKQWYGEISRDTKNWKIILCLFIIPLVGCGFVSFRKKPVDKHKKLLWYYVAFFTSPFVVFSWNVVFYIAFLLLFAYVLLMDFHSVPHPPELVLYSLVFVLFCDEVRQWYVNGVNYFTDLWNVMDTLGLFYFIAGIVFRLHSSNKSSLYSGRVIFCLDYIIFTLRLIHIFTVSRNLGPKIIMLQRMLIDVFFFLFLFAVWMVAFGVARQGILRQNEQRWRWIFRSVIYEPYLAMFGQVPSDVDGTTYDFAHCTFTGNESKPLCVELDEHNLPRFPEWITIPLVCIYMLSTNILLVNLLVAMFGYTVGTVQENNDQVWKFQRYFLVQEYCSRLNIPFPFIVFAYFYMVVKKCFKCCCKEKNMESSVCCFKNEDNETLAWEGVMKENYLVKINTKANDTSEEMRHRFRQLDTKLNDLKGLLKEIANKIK

Row | SMILES | IC50 [nmol/L]
1 | O=S(=O)(c1ccc(CNS(=O)(=O)C(F)(F)F)cc1)N(Cc1ccc(OC(F)(F)F)cc1)c1ncc2ccccc2c1C1CC1 [Example 12, N-(4-cyclopropylisoquinolin-3-yl)-N-[4-(trifluoromethoxy)benzyl]-4-({[(trifluoromethyl)sulfonyl]amino}methyl)benzenesulfonamide] | 40.2
2 | Cc1cc(S(=O)(=O)N(Cc2ccc(OC(F)(F)F)cc2)c2ncc3ccccc3c2C2CC2)cc(C)c1C(=O)O [Example 51] | 10.9
3 | O=C(O)c1ccc(S(=O)(=O)N(Cc2ccc(OC(F)(F)F)cc2)c2ncc3ccccc3c2C2CC2)cc1N1CCOCC1 [Example 60] | 19.6
4 | Cc1n[nH]c(-c2ccc(S(=O)(=O)N(Cc3ccc(OC(F)(F)F)cc3)c3ncc4ccccc4c3C(F)(F)F)cc2)n1 [Example 21] | 1.1
5 | O=C(O)c1ccc(S(=O)(=O)N(Cc2ccc(OC(F)(F)F)cc2)c2ncc3ccccc3c2C2CC2)cc1N1CCCC1 [Example 58] | 4.6
6 | O=C(O)c1ccc(S(=O)(=O)N(Cc2ccc(OC(F)(F)F)cc2)c2ncc3ccccc3c2C2CC2)cc1N1CCCCC1 [Example 59] | 10.3
7 | Cc1cc(C(=O)O)ccc1S(=O)(=O)N(Cc1ccc(OC(F)(F)F)cc1)c1ncc2ccccc2c1C1CC1 [Example 38, 4-({(4-cyclopropylisoquinolin-3-yl)[4-(trifluoromethoxy)benzyl]amino}sulfonyl)-3-methylbenzoic acid] | 0.7
8 | Cc1c(N(Cc2ccc(OC(F)(F)F)cc2)S(=O)(=O)c2ccc(-c3noc(=O)[nH]3)cc2)nc(C2CC2)c2ccccc12 [Example 32] | 2.7
9 | COCc1cc(S(=O)(=O)N(Cc2ccc(OC(F)(F)F)cc2)c2ncc3ccccc3c2C2CC2)ccc1C(=O)O [Example 39, 4-({(4-cyclopropylisoquinolin-3-yl)[4-(trifluoromethoxy)benzyl]amino}sulfonyl)-2-(methoxymethyl)benzoic acid] | 1.4
10 | CCc1cc(S(=O)(=O)N(Cc2ccc(OC(F)(F)F)cc2)c2ncc3ccccc3c2C(F)(F)F)ccc1C(=O)O [Example 53] | 3
11 | O=c1[nH]nnn1-c1ccc(S(=O)(=O)N(Cc2ccc(OC(F)(F)F)cc2)c2ncc3ccccc3c2C2CC2)cc1 [Example 4, N-(4-cyclopropylisoquinolin-3-yl)-4-(5-oxo-4,5-dihydro-1H-tetrazol-1-yl)-N-[4-(trifluoromethoxy)benzyl]benzenesulfonamide] | 1.1
12 | Cc1cc(S(=O)(=O)N(Cc2ccc(OC(F)(F)F)cc2)c2ncc3ccccc3c2C2CC2)cc(F)c1C(=O)O [Example 42] | 1.5
13 | Cc1n[nH]c(-c2ccc(S(=O)(=O)N(Cc3ccc(OC(F)(F)F)cc3)c3ncc4ccccc4c3C(F)(F)F)cn2)n1 [Example 29] | 2.2
14 | CS(=O)(=O)NCc1ccc(S(=O)(=O)N(Cc2ccc(OC(F)(F)F)cc2)c2ncc3ccccc3c2C2CC2)cc1 [Example 11, N-(4-cyclopropylisoquinolin-3-yl)-4-{[(methylsulfonyl)amino]methyl}-N-[4-(trifluoromethoxy)benzyl]benzenesulfonamide] | 29.5
15 | Cc1cc(S(=O)(=O)N(Cc2ccc(OC(F)(F)F)cc2)c2ncc3ccccc3c2C(F)(F)F)ccc1C(=O)O [Example 46] | 3.3
16 | O=c1[nH]c(-c2ccc(S(=O)(=O)N(Cc3ccc(OC(F)(F)F)cc3)c3ncc4ccccc4c3C(F)(F)F)cn2)no1 [Example 33] | 3.6
17 | O=S(=O)(c1ccc(-c2ncn[nH]2)cc1)N(Cc1ccc(OC(F)(F)F)cc1)c1ncc2ccccc2c1C(F)(F)F [Example 20] | 3.2
18 | Cc1cc(S(=O)(=O)N(Cc2ccc(OC(F)(F)F)cc2)c2nc(C3CC3)c3ccccc3c2C)ccc1C(=O)O [Example 40, 4-({(1-cyclopropyl-4-methylisoquinolin-3-yl)[4-(trifluoromethoxy)benzyl]amino}sulfonyl)-2-methylbenzoic acid] | 6.5
19 | O=C(O)c1ccc(S(=O)(=O)N(Cc2ccc(OC(F)(F)F)cc2)c2ncc3ccccc3c2C2CC2)cc1-c1ccccc1 [Example 55] | 13.6
20 | O=C(O)c1ccc(S(=O)(=O)N(Cc2ccc(OC(F)(F)F)cc2)c2ncc3ccccc3c2C2CC2)cc1C1CC1 [Example 43] | 10.1
21 | CC(C)c1cc(S(=O)(=O)N(Cc2ccc(OC(F)(F)F)cc2)c2ncc3ccccc3c2C2CC2)ccc1C(=O)O [Example 44] | 5.6

Results, then the compound that gave them:

Row | IC50 [nmol/L] | SMILES
22 | 1.4 | Cc1cc(S(=O)(=O)N(Cc2ccc(OC(F)(F)F)cc2)c2ncc3ccccc3c2C2CC2)ccc1C(=O)O [Example 36, 4-({(4-cyclopropylisoquinolin-3-yl)[4-(trifluoromethoxy)benzyl]amino}sulfonyl)-2-methylbenzoic acid]
23 | 2.5 | CCCc1cc(S(=O)(=O)N(Cc2ccc(OC(F)(F)F)cc2)c2ncc3ccccc3c2C2CC2)ccc1C(=O)O [Example 57]
24 | 0.6 | Cc1n[nH]c(-c2ccc(S(=O)(=O)N(Cc3ccc(OC(F)(F)F)cc3)c3ncc4ccccc4c3C3CC3)cc2)n1 [Example 22]
25 | 0.5 | Cc1cc(S(=O)(=O)N(Cc2ccc(OC(F)(F)F)cc2)c2ncc3ccccc3c2C2CC2)ccc1-c1noc(=O)[nH]1 [Example 34]
26 | 1.1 | CNc1cc(S(=O)(=O)N(Cc2ccc(OC(F)(F)F)cc2)c2ncc3ccccc3c2C2CC2)ccc1C(=O)O [Example 41, 4-({(4-cyclopropylisoquinolin-3-yl)[4-(trifluoromethoxy)benzyl]amino}sulfonyl)-2-(methylamino)benzoic acid]
27 | 9.6 | O=c1[nH]c(-c2ccc(S(=O)(=O)N(Cc3ccc(OC(F)(F)F)cc3)c3ncc4ccccc4c3C3CC3)nc2)no1 [Example 35]
28 | 3.4 | O=S(=O)(c1ccc(-c2ncn[nH]2)cc1)N(Cc1ccc(OC(F)(F)F)cc1)c1ncc2ccccc2c1C1CC1 [Example 5, N-(4-cyclopropylisoquinolin-3-yl)-4-(2H-1,2,4-triazol-3-yl)-N-[4-(trifluoromethoxy)benzyl]benzenesulfonamide]
29 | 0.5 | Cc1cc(S(=O)(=O)N(Cc2ccc(OC(F)(F)F)cc2)c2ncc3ccccc3c2C2CC2)ccc1-c1ncn[nH]1 [Example 23]
30 | 1.1 | Cc1n[nH]c(-c2ccc(S(=O)(=O)N(Cc3ccc(OC(F)(F)F)cc3)c3ncc4ccccc4c3C3CC3)cn2)n1 [Example 30]
31 | 3.8 | O=C(O)c1ccc(S(=O)(=O)N(Cc2ccc(OC(F)(F)F)cc2)c2ncc3ccccc3c2C2CC2)cc1Cl [Example 47]
32 | 18.1 | O=C(O)c1ccc(S(=O)(=O)N(Cc2ccc(OC(F)(F)F)cc2)c2ncc3ccccc3c2C2CC2)cc1C(F)(F)F [Example 49]
33 | 0.3 | Cc1cc(S(=O)(=O)N(Cc2ccc(OC(F)(F)F)cc2)c2ncc3ccccc3c2C2CC2)ccc1-c1nnn[nH]1 [Example 17]
34 | 2.1 | CCc1cc(S(=O)(=O)N(Cc2ccc(OC(F)(F)F)cc2)c2ncc3ccccc3c2C2CC2)ccc1C(=O)O [Example 54]
35 | 1.1 | O=c1[nH]c(-c2ccc(S(=O)(=O)N(Cc3ccc(C(F)(F)F)cn3)c3ncc4ccccc4c3C3CC3)cc2)no1 [Example 31]
36 | 1.6 | O=S(=O)(c1ccc(-c2nnn[nH]2)nc1)N(Cc1ccc(OC(F)(F)F)cc1)c1ncc2ccccc2c1C(F)(F)F [Example 16]
37 | 1.2 | O=S(=O)(c1ccc(-c2ncn[nH]2)cc1)N(Cc1ccc(C(F)(F)F)cn1)c1ncc2ccccc2c1C1CC1 [Example 24]
38 | 7.6 | O=S(=O)(c1ccc(-c2nnn[nH]2)cn1)N(Cc1ccc(OC(F)(F)F)cc1)c1ncc2ccccc2c1C1CC1 [Example 3, N-(4-cyclopropylisoquinolin-3-yl)-5-(1H-tetrazol-5-yl)-N-[4-(trifluoromethoxy)benzyl]pyridine-2-sulfonamide]
39 | 0.3 | O=S(=O)(c1ccc(-c2nnn[nH]2)cc1)N(Cc1ccc(OC(F)(F)F)cc1)c1ncc2ccccc2c1C1CC1 [Example 1, N-(4-cyclopropylisoquinolin-3-yl)-4-(1H-tetrazol-5-yl)-N-[4-(trifluoromethoxy)benzyl]benzenesulfonamide]
40 | 0.8 | Cc1n[nH]c(-c2ccc(S(=O)(=O)N(Cc3ccc(C(F)(F)F)cn3)c3ncc4ccccc4c3C3CC3)cc2C)n1 [Example 27]
41 | 0.9 | O=S(=O)(c1ccc(-c2nnn[nH]2)cc1)N(Cc1ccc(C(F)(F)F)cn1)c1ncc2ccccc2c1C1CC1 [Example 18]
42 | 1.7 | O=S(=O)(c1ccc(-c2ncn[nH]2)nc1)N(Cc1ccc(OC(F)(F)F)cc1)c1ncc2ccccc2c1C1CC1 [Example 6, N-(4-cyclopropylisoquinolin-3-yl)-6-(1H-1,2,4-triazol-5-yl)-N-[4-(trifluoromethoxy)benzyl]pyridine-3-sulfonamide]
43 | 0.7 | O=S(=O)(c1ccc(-c2nnn[nH]2)nc1)N(Cc1ccc(OC(F)(F)F)cc1)c1ncc2ccccc2c1C1CC1 [Example 2, N-(4-cyclopropylisoquinolin-3-yl)-6-(1H-tetrazol-5-yl)-N-[4-(trifluoromethoxy)benzyl]pyridine-3-sulfonamide]
44 | 1 | O=C(O)c1ccc(S(=O)(=O)N(Cc2ccc(OC(F)(F)F)cc2)c2ncc3ccccc3c2C2CC2)cc1F [Example 52]
45 | 9.5 | Cc1cc(S(=O)(=O)N(Cc2ccc(C(F)(F)F)cn2)c2ncc3ccccc3c2C2CC2)ccc1C(=O)O [Example 37, 4-[((4-cyclopropylisoquinolin-3-yl){[5-(trifluoromethyl)pyridin-2-yl]methyl}amino)sulfonyl]-2-methylbenzoic acid]
46 | 11.7 | COc1cc(S(=O)(=O)N(Cc2ccc(OC(F)(F)F)cc2)c2ncc3ccccc3c2C2CC2)ccc1C(=O)O [Example 50]
